Measured values from ChEMBL document CHEMBL4622851, “Cytotoxicity of 4-substituted quinoline derivatives: Anticancer and antileishmanial potential” (Bioorg Med Chem, 2020).
Calls of active or inactive are those of the source. No cut-off for these calls is given here.

Assays:
[1] = system: SK-MEL-147; assay: Cytotoxicity against human SK-MEL-147 cells assessed as reduction in cell viability at 50 and 100 uM after 24 hrs by MTT assay; assay type: functional, cell-based
[2] = system: Jurkat; assay: Cytotoxicity against human Jurkat cells assessed as reduction in cell viability at 50 and 100 uM after 24 hrs by MTT assay; assay type: functional, cell-based
[3] = system: SK-MEL-147; assay: Cytotoxicity against human SK-MEL-147 cells assessed as reduction in cell viability after 24 hrs by MTT assay; assay type: functional, cell-based; details: SK-MEL-147, 24 h
[4] = system: Jurkat; assay: Cytotoxicity against human Jurkat cells assessed as reduction in cell viability after 24 hrs by MTT assay; assay type: functional, cell-based
[5] = target: Cysteine proteinase B (Leishmania mexicana, UniProt P36400); assay: Inhibition of Leishmania mexicana rCPB2.8 using Z-FR-AMC as substrate by spectrofluorometric analysis
Chain of Cysteine proteinase B (P36400 whole entry): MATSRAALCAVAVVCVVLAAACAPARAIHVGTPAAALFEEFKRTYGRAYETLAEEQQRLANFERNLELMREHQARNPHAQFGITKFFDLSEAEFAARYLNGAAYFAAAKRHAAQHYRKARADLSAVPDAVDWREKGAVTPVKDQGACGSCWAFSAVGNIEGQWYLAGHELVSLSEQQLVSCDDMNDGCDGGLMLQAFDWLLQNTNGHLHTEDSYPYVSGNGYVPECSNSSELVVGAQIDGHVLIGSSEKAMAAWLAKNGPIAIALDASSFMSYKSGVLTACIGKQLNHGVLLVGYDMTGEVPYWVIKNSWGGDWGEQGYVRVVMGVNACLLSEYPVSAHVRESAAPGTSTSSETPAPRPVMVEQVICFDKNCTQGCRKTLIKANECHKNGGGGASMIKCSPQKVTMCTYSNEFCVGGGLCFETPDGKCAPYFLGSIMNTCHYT

[6] = Inhibition of Leishmania mexicana rCPB3.0 using Z-FR-AMC as substrate by spectrofluorometric analysis
[7] = Inhibition of Leishmania mexicana rCPB3.0 H84Y mutant using Z-FR-AMC as substrate by spectrofluorometric analysis

Compound | Activity [1] | Activity [2] | EC50 [3] [µM] | EC50 [4] [µM] | IC50 [5] [µM] | IC50 [6] [µM] | IC50 [7] [µM]
CCOC(=O)c1cc([Se]c2ccc(F)cc2)c2cc(OC)ccc2n1 | Active | Active | > 150 | 134 | – | – | –
CCOC(=O)c1cc([Se]c2ccccc2)c2ccccc2n1 | Active | Active | 86.3 | 98.2 | 54 | 57.5 | 25.3
CCOC(=O)c1cc([Se]c2ccccc2)c2cc(Br)ccc2n1 | Active | Active | 12.4 | 20.8 | – | – | –
CCOC(=O)c1cc([Se]Cc2ccccc2)c2cc(Cl)ccc2n1 | Active | Active | 84.5 | 88.5 | – | – | –
CCOC(=O)c1cc([Se]c2ccc(OC)cc2)c2cc(OC)ccc2n1 | Active | Active | 54.3 to 150 | 82.5 to 97.3 | – | – | –
CCOC(=O)c1cc([Se]c2ccccc2)c2cc(OC)ccc2n1 | Active | Active | 33 | 102 | – | – | –
CCOC(=O)c1cc([Se]Cc2ccccc2)c2cc(Br)ccc2n1 | Active | Active | 31.2 | 53.6 | – | – | –
CCOC(=O)c1cc(C#CCCO)c2cc(OC)ccc2n1 | Active | Active | > 150 | 123 | – | – | –
CCOC(=O)c1cc([Se]c2ccccc2)c2cc(Cl)ccc2n1 | Active | Active | 47.1 | 53 | – | – | –
COc1ccc2nc(-c3cccs3)cc([Se]c3ccccc3)c2c1 | Active | Active | > 150 | 99.8 | – | – | –
CCOC(=O)c1cc(C#Cc2ccccc2[N+](=O)[O-])c2cc(OC)ccc2n1 | Active | Active | > 150 | 54.7 | – | – | –
CCOC(=O)c1cc(C#Cc2ccc(N)cc2)c2cc(OC)ccc2n1 | Active | Active | 8.8 | 61 | – | – | –
